# Experimental data published in patent publication US8889876B2, “Histone deacetylase inhibitors and uses thereof” (Jiangsu Hengyi Pharmaceutical Co., Ltd., priority 2008, dated 2014).
# Key:
# [1] = tested on: PC-3 human prostate cancer; test: CCK-8 proliferation inhibition, PC-3; assay type: cell-based; conditions: CCK-8 method; for inhibition at 10 µM / inhibition at 100 µM: Homo sapiens
# Outline: (§1)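 Read-out is CCK-8 colorimetric viability, expressed as the inhibition rate relative to untreated cells at fixed compound levels of 100 μM and 10 μM.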
# [2] = tested on: Hut78 T-cell Leukemia cell; test: CCK-8 proliferation inhibition, Hut78; assay type: cell-based; conditions: for inhibition at 10 µM / inhibition at 100 µM: Homo sapiens, read-out: Hut-78 (inhibition %); for inhibition at 10 µM: HuT78, 10 μM; for inhibition at 100 µM: HuT78, 100 μM
# Outline: as §1
# [3] = tested on: Colo320 human rectal cancer cells; test: CCK-8 proliferation inhibition, Colo320; assay type: cell-based; conditions: CCK-8 method; for inhibition at 10 µM / inhibition at 100 µM: Homo sapiens, COLO 320
# Outline: as §1
# [4] = tested on: A549 human lung cancer cells; test: CCK-8 proliferation inhibition, A549; assay type: cell-based; conditions: CCK-8 method; for inhibition at 10 µM / inhibition at 100 µM: Homo sapiens, A549
# Outline: as §1
# [5] = tested on: Jurkat E6-1 human T-cell lymphoma; test: CCK-8 proliferation inhibition, Jurkat E6-1; assay type: cell-based; conditions: for inhibition at 10 µM / inhibition at 100 µM: Homo sapiens; for inhibition at 10 µM: Jurkat E6.1, 10 μM; for inhibition at 100 µM: Jurkat E6.1, 100 μM
# Outline: as §1
# [6] = tested on: PANC-1 human pancreatic cancer cells; test: CCK-8 proliferation inhibition, PANC-1; assay type: cell-based; conditions: for inhibition at 10 µM / inhibition at 100 µM: Homo sapiens; for inhibition at 10 µM: PANC-1, 10 μM; for inhibition at 100 µM: PANC-1, 100 μM
# Outline: as §1
# [7] = tested on: histone deacetylase; test: in vitro inhibition of histone deacetylase by HDAC inhibitor screening kit (Biovision K340-100); assay type: biochemical
# Protocol: An assay for determining the in vitro inhibition activity of the compound on histone deacetylase is conducted according to the specification of HDAC inhibitor screeing kid (Biovision Company/Catalog #K340-100). […]
# [8] = tested on: K562 human chronic myeloid leukemia cells; test: CCK-8 proliferation inhibition, K562; assay type: cell-based; conditions: for inhibition at 10 µM / inhibition at 100 µM: Homo sapiens; for inhibition at 10 µM: K562, 10 μM; for inhibition at 100 µM: K562, 100 μM
# Outline: as §1
# [9] = tested on: MDA-MB-435s human breast cancer cells; test: CCK-8 proliferation inhibition, MDA-MB-435s; assay type: cell-based; conditions: CCK-8 method; for inhibition at 10 µM / inhibition at 100 µM: Homo sapiens, MDA-MB-435S
# Outline: as §1
# [10] = tested on: Hep3B2.1-7 human liver cancer cells; test: CCK-8 proliferation inhibition, Hep3B2.1-7; assay type: cell-based; conditions: CCK-8 method; for inhibition at 10 µM / inhibition at 100 µM: Homo sapiens, Hep3B
# Outline: as §1
Compound,Inhibition rate(%) ([7]; 3.91 μM),Inhibition rate(%) ([7]; 62.5 μM),Inhibition rate(%) ([7]; 2 mM),inhibition at 10 µM ([1]; compound concentration 10 μM) [%],inhibition at 100 µM ([1]; compound concentration 100 μM) [%],inhibition at 10 µM [2] [%],inhibition at 100 µM [2] [%],inhibition at 10 µM ([3]; compound concentration 10 μM) [%],inhibition at 100 µM ([3]; compound concentration 100 μM) [%],inhibition at 10 µM ([4]; compound concentration 10 μM) [%],inhibition at 100 µM ([4]; compound concentration 100 μM) [%],inhibition at 10 µM [5] [%],inhibition at 100 µM [5] [%],inhibition at 10 µM [6] [%],inhibition at 100 µM [6] [%],inhibition at 10 µM [8] [%],inhibition at 100 µM [8] [%],inhibition at 10 µM ([9]; compound concentration 10 μM) [%],inhibition at 100 µM ([9]; compound concentration 100 μM) [%],inhibition at 10 µM ([10]; compound concentration 10 μM) [%],also measured
"COc1cc(CCC(=O)NCc2ccc(C(=O)Nc3cccnc3N)cc2)cc(OC)c1OC [V-54, N-(2-amino-3-pyridyl)-4-[3-(3,4,5-methoxyphenyl)propionylaminomethyl]benzamide]",2.2,3.1,42.5,–,–,–,–,–,–,–,–,–,–,–,–,–,–,–,–,–,PC-3 (inhibition %) ([1]; compound concentration 10 μM): 5.6%; PC-3 (inhibition %) ([1]; compound concentration 100 μM): 5.9%; Hut-78 (inhibition %) ([2]; 10 μM): 0.9%; Hut-78 (inhibition %) ([2]; 100 μM): 10.6%; Colo320 (inhibition %) ([3]; compound concentration 10 μM): 6.8%; Colo320 (inhibition %) ([3]; compound concentration 100 μM): 2.7%; A549 (inhibition %) ([4]; compound concentration 10 μM): 7.5%; A549 (inhibition %) ([4]; compound concentration 100 μM): 12.8%; Jurkat E6-1 (inhibition %) ([5]; 10 μM): 2.9%; Jurkat E6-1 (inhibition %) ([5]; 100 μM): 5.8%; PANC-1 (inhibition %) ([6]; 10 μM): 15.6%; PANC-1 (inhibition %) ([6]; 100 μM): 11.7%; K562 (inhibition %) ([8]; 10 μM): 12.7%; K562 (inhibition %) ([8]; 100 μM): 13.1%; 435s(inhibition %) ([9]; compound concentration 10 μM): 14.6%; 435s(inhibition %) ([9]; compound concentration 100 μM): 14.0%; Hep3B (inhibition %) ([10]; compound concentration 10 μM): 4.2%; Hep3B (inhibition %) ([10]; compound concentration 100 μM): 4.7%
"COc1cccc(/C=C/C(=O)NCc2ccc(C(=O)Nc3cccnc3N)cc2)c1 [V-91, N-(2-amino-3-pyridyl)-4-[(3-methoxycinnamoyl)aminomethyl]benzamide]",10.1,47.8,81.8,7.9,24.2,26.8,68.3,9.6,27.6,17.7,48.9,23.7,89.9,2.4,8.5,37.4,81.6,25.9,71.2,7.8,inhibition at 100 µM ([10]; compound concentration 100 μM): 63.6%
COc1cccc(/C=C/C(=O)NCc2ccc(C(=O)Nc3ccncc3N)cc2)c1 [V-92],24.0,56.1,65.7,41,73.8,46.2,78.5,6,65.5,2.2,54.2,87.5,95.5,6.3,33.3,68.7,91.1,23.7,77.7,20.2,inhibition at 100 µM ([10]; compound concentration 100 μM): 80.5%
"COc1ccc(/C=C/C(=O)NCc2ccc(C(=O)Nc3cccnc3N)cc2)cc1OC [V-93, N-(2-amino-3-pyridyl)-4-[(3,4-dimethoxycinnamoyl)aminomethyl]benzamide]",14.3,48.0,55.3,41.6,80.6,27.2,64.7,6.1,13.1,-2.5,3.4,23.4,93.1,9.8,16.6,23.7,67.3,16.3,48.5,4.9,inhibition at 100 µM ([10]; compound concentration 100 μM): 26.8%
COc1cccc(COC(=O)NCc2ccc(C(=O)Nc3ccncc3N)cc2)c1 [V-95],17.2,46.7,90.6,30.6,80,8,58,-1.9,68.8,-12.6,48.3,21.6,93.8,7,48.7,50.6,71.9,4.2,72.5,16.7,inhibition at 100 µM ([10]; compound concentration 100 μM): 72%
COc1ccc(COC(=O)NCc2ccc(C(=O)Nc3ccncc3N)cc2)cc1OC [V-96],14.0,42.2,85.0,27.8,53.3,-0.4,41.7,-0.8,27,-6.2,33.4,15.4,83.4,-0.4,64.8,41.1,61.6,1.9,69.6,-0.9,inhibition at 100 µM ([10]; compound concentration 100 μM): 35.2%
N-(2-amino-3-pyridyl)-4-[(4-methoxybenzyloxyacyl)aminomethyl]benzamide [V-11],6.5,22.1,39.2,–,–,–,–,–,–,–,–,–,–,–,–,–,–,–,–,–,PC-3 (inhibition %) ([1]; compound concentration 10 μM): 8.1%; PC-3 (inhibition %) ([1]; compound concentration 100 μM): 49.8%; Hut-78 (inhibition %) ([2]; 10 μM): 10.7%; Hut-78 (inhibition %) ([2]; 100 μM): 60.3%; Colo320 (inhibition %) ([3]; compound concentration 10 μM): 8.9%; Colo320 (inhibition %) ([3]; compound concentration 100 μM): 48.5%; A549 (inhibition %) ([4]; compound concentration 10 μM): −7.4%; A549 (inhibition %) ([4]; compound concentration 100 μM): 24.9%; Jurkat E6-1 (inhibition %) ([5]; 10 μM): 26.4%; Jurkat E6-1 (inhibition %) ([5]; 100 μM): 91.0%; PANC-1 (inhibition %) ([6]; 10 μM): 1.1%; PANC-1 (inhibition %) ([6]; 100 μM): 35.2%; K562 (inhibition %) ([8]; 10 μM): 29.7%; K562 (inhibition %) ([8]; 100 μM): 82.6%; 435s(inhibition %) ([9]; compound concentration 10 μM): −16.5%; 435s(inhibition %) ([9]; compound concentration 100 μM): 85.4%; Hep3B (inhibition %) ([10]; compound concentration 10 μM): 8.1%; Hep3B (inhibition %) ([10]; compound concentration 100 μM): 53.2%
